Experiments:
hCA XII = hCA XII (Homo sapiens, UniProt O43570); experiment: Carbonic anhydrase inhibition assay, hCA XII; type: biochemical
Experimental: (§1) The protein quantity in the column effluents was determined spectrophotometrically at 280 nm. Sodium dodecyl sulphate polyacrylamide gel electrophoresis (SDS-PAGE) was applied with a Bio-Rad Mini Gel system Mini-PROTEINVR system (Hercules, CA), Bio-Rad Laboratories, Inc., China after purification of both CA isoenzymes. Briefly, it was performed in acrylamide for the running (10%) and the stacking gel (3%) contained SDS (0.1%), respectively. Activities of CA isoenzymes were determined according to a method by Verporte et al.[57]. The increase in absorbance of the reaction medium was spectrophotometrically recorded at 348 nm. Also, the quantity of protein was determined at 595 nm according to the Bradford method. Bovine serum albumin was used as standard protein. The IC50 values were obtained from activity (%) versus compounds plots. For calculation of KI values, three different concentrations were used. The Lineweaver–Burk curves were drawn and calculations were realised.

hCA IX = hCA IX (Homo sapiens, UniProt Q16790); experiment: Carbonic anhydrase inhibition assay, hCA IX; type: biochemical
Experimental: as §1

hCA II = hCA II (Homo sapiens, UniProt P00918); experiment: Carbonic anhydrase inhibition assay, hCA II; type: biochemical
Experimental: (§2) The purification of cytosolic CA isoenzymes (CA I and CA II) was previously described with a simple one-step method by a Sepharose-4B-L tyrosine-sulphanilamide affinity chromatography.
as §1

hCA I = hCA I (Homo sapiens, UniProt P00915); experiment: Carbonic anhydrase inhibition assay, hCA I; type: biochemical
Experimental: as §2, §1

hCA XII, sequence (O43570 25-354): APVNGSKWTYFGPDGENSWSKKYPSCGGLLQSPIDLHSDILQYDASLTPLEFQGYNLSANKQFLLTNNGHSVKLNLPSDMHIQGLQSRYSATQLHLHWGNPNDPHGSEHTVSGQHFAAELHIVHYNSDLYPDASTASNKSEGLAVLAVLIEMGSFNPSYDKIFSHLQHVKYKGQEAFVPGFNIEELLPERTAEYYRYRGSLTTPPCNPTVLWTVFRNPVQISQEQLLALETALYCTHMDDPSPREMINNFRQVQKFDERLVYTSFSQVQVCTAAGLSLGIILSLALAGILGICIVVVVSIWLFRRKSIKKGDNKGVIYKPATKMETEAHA
hCA I, sequence (P00915 whole entry): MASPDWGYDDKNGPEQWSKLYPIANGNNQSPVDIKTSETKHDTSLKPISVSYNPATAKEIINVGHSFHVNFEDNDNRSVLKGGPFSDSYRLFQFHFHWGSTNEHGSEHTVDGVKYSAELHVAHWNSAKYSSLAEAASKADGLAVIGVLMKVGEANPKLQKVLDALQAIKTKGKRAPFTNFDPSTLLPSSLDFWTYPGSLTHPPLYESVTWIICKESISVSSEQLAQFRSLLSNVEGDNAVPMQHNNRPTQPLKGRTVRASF

SMILES	melting point [°C]	also measured
Cn1c(-c2ccc(Cl)cc2Cl)cs/c1=N\c1ccc(S(N)(=O)=O)cc1 [EMAC8002e]	256 to 257	–
Cn1c(-c2ccc(C#N)cc2)cs/c1=N\c1ccc(S(N)(=O)=O)cc1 [EMAC8002f]	237 to 238	–
Cn1c(-c2ccc(F)cc2F)cs/c1=N\c1ccc(S(N)(=O)=O)cc1 [EMAC8002g]	239 to 240	–
Cn1c(-c2ccc(-c3ccccc3)cc2)csc1=Nc1ccc(S(N)(=O)=O)cc1 [EMAC8002i]	254 to 255	Ki (hCA XII): 9.5 nM; selective index hCA II/hCA XII (hCA XII; ratio of Ki hCA II to Ki hCA XII): higher than 52; Ki (hCA IX): 1390 nM; Ki (hCA II): 503 nM; Ki (hCA I): 8910 nM
COc1ccc(-c2cs/c(=N\c3ccc(S(N)(=O)=O)cc3)n2C)cc1 [EMAC8002k]	243 to 244	–
Cn1c(-c2ccccc2)cs/c1=N\c1ccc(S(N)(=O)=O)cc1 [EMAC8002m]	252 to 253	–

Now from value to compound, other results behind:

melting point [°C]	SMILES	also measured
256 to 259	Cn1c(-c2ccc(Br)cc2)cs/c1=N\c1ccc(S(N)(=O)=O)cc1 [EMAC8002a]	–
241 to 242	Cn1c(-c2ccc(Cl)cc2)cs/c1=N\c1ccc(S(N)(=O)=O)cc1 [EMAC8002b]	–
230 to 233	Cn1c(-c2ccc(F)cc2)cs/c1=N\c1ccc(S(N)(=O)=O)cc1 [EMAC8002c]	–
235 to 236	Cn1c(-c2cccc([N+](=O)[O-])c2)cs/c1=N\c1ccc(S(N)(=O)=O)cc1 [EMAC8002d]	–
244 to 245	Cn1c(-c2ccc([N+](=O)[O-])cc2)cs/c1=N\c1ccc(S(N)(=O)=O)cc1 [EMAC8002h]	–
252 to 254	Cc1ccc(-c2cs/c(=N\c3ccc(S(N)(=O)=O)cc3)n2C)cc1 [EMAC8002j]	–

From PMC6713091, “Exploring new structural features of the 4-[(3-methyl-4-aryl-2,3-dihydro-1,3-thiazol-2-ylidene)amino]benzenesulphonamide scaffold for the inhibition of human carbonic anhydrases” (Journal of Enzyme Inhibition and Medicinal Chemistry, 2019)
